The target in experiment [1] is T1, D-3-phosphoglycerate dehydrogenase (Homo sapiens, UniProt O43175).
T1 sequence (O43175 whole entry): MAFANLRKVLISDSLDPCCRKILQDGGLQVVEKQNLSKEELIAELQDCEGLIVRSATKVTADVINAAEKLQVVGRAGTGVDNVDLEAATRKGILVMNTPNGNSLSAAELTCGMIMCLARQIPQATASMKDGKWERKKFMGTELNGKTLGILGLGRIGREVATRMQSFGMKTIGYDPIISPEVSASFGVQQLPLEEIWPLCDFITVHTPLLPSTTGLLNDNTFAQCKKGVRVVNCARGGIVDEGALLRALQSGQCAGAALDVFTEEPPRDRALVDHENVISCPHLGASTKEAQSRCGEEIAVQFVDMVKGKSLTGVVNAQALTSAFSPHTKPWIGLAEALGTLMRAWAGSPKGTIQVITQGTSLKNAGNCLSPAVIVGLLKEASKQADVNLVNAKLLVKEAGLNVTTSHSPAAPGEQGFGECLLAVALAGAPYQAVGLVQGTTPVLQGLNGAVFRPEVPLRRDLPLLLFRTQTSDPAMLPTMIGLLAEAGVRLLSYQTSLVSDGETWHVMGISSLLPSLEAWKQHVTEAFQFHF
The experiment in a line: Inhibition of N-terminal His6-tagged human PHGDH (4 to 315 residues) assessed as effect on NADH fluorescence incubated for 2 hrs using 3-PG substrate in presence of 19 uM NAD+ and PSAT1 by diaphorase based luminescence assay.

In experiment [2] the target is T1, D-3-phosphoglycerate dehydrogenase. The experiment in a line: Inhibition of N-terminal His6-tagged human PHGDH (4 to 315 residues) assessed as effect on NADH fluorescence incubated for 2 hrs using 3-PG substrate in presence of 250 uM NAD+ and PSAT1 by diaphorase based luminescence assay.
Experiment [3] has the same target. Put plainly: Binding affinity to human PHGDH ( 1 to 533 residues) expressed in Escherichia coli Rosetta (DE3) by Sypro-orange dye based differential scanning fluorimetry. On the technique in general: In DSF a fluorescence change marks the thermal transition of the protein.
Experiment [4] shares this target. The experiment in a line: Binding affinity to N-terminal His6-tagged human PHGDH (4 to 315 residues)by SPR assay. (SPR reads the build-up and loss of mass on a sensor chip optically.)
Experiment [5] has the same target. Put plainly: Inhibition of His6-tagged PHGDH (unknown origin) expressed in Escherichia coli BL21 assessed as effect on NADH fluorescence incubated for 60 mins using 3-PG as substrate in presence of 500 uM NAD+ and PSAT1 by diaphorase and resazurin dye based fluorescence assay. Background: Resazurin is reduced to fluorescent resorufin, in cell work by metabolically active cells.

This passage reports IC50 and Kd results from ChEMBL document CHEMBL4373702, “Intracellular Trapping of the Selective Phosphoglycerate Dehydrogenase (PHGDH) Inhibitor BI-4924 Disrupts Serine Biosynthesis” (J Med Chem, 2019).

Usually pIC50 stands for the negative decadic logarithm of the IC50, by convention in mol/L. As a reminder, the pKd is −log10 of the Kd, conventionally taken in molar units. A higher pKd goes with a small Kd.

Each structure is given as a SMILES string. pIC50, pKd: −log10 of the molar value. A value given as a limit tells only on which side of the number the result lay.

`C[C@@H](NC(=O)c1cc(-c2ccccc2)nn1C)c1ccc(N2C(=O)CNC2=O)cc1`: the pIC50 in experiment [1] is 5.64.

As to `CC(NC(=O)c1cc(-c2ccccc2)nn1C)c1ccc(C#N)cc1` (racemic), in experiment [1], the pIC50 was 4.47.

For the compound `Cn1c(C(=O)NC(C(=O)O)c2ccccc2)cc2cc(Cl)ccc21` (racemic), the pIC50 in experiment [1] was less than 4.00.

Turning to `C[C@@H](NC(=O)c1cc(-c2ccccc2)nn1C)c1ccc(N2C(=O)CC[C@H]2C(=O)O)cc1`, in experiment [1], the pIC50 was 7.00.

Consider `CC(NC(=O)c1cc(-c2ccccc2)nn1C)c1ccc(S(C)(=O)=O)cc1` (racemic), for which the pIC50 in experiment [1] was 5.23.

Consider `CC(NC(=O)c1cc(-c2ccccc2)nn1C)c1ccc(S(N)(=O)=O)cc1` (racemic), for which the pIC50 in experiment [1] is 5.37.

For the compound `C[C@H](NC(=O)c1cc(-c2ccccc2)nn1C)c1ccccc1`, in experiment [1], the pIC50 was less than 4.00.

Take `C[C@@H](NC(=O)c1cc2c(Cl)cc(C(F)F)cc2n1C)c1ccc(C(=O)O)cc1`: the pIC50 in experiment [1] is 7.09; in experiment [2], 6.15.

In the case of `CC(=O)NS(=O)(=O)c1ccc(C(C)NC(=O)c2cc(-c3ccccc3)nn2C)cc1` (racemic), the pIC50 in experiment [1] is 7.15.

For the compound `C[C@@H](NC(=O)c1cc(-c2ccccc2)nn1C)c1ccc(C(=O)NS(C)(=O)=O)cc1`, in experiment [1], the pIC50 is 6.52.

In the case of `C[C@@H](NC(=O)c1cc(-c2ccccc2)nn1C)c1ccc(N2C[C@@H](O)[C@@H](O)C2)cc1`, the pIC50 in experiment [1] is 5.28.

For `CC(NC(=O)c1cc(-c2ccccc2)nn1C)c1ccc(CC(=O)O)cc1` (racemic), in experiment [1], the pIC50 is 6.10.

Consider `C[C@@H](NC(=O)c1cc2cc(Cl)ccc2n1C)c1ccc(C(=O)O)cc1`, for which the pIC50 was 6.60 in experiment [1] and 5.63 in experiment [2].

With `Cn1c(C(=O)NC(CO)c2ccccc2)cc2cc(Cl)ccc21` (racemic), in experiment [1], the pIC50 is 5.28.

For `C[C@@H](NC(=O)c1cc2c(Cl)c(Cl)ccc2n1C)c1ccc(C(=O)O)cc1`, the pIC50 was 7.52 in experiment [1] and 6.64 in experiment [2].

Turning to `C[C@@H](NC(=O)c1cc(-c2ccccc2)nn1C)c1ccc(NC(=N)N)cc1`, in experiment [1], the negative logarithm of the IC50 (pIC50) is less than 4.00.

Consider `Cn1nc(-c2ccccc2)cc1C(=O)NCc1ccc(C(=O)O)cc1`, for which the pIC50 in experiment [1] was 5.24.

In the case of `Cc1cc2c(cc(C(=O)N[C@H](C)c3ccc(S(=O)(=O)CC(=O)O)cc3)n2C)c(Cl)c1Cl`, the pIC50 in experiment [1] is 8.70.

With `C[C@H](O)[C@@H](NC(=O)c1cc2cc(Cl)ccc2n1C)c1ccccc1`, the pIC50 in experiment [1] was 4.93.

Turning to `COc1ccc([C@@H](C)NC(=O)c2cc(-c3ccccc3)nn2C)cc1`, the pIC50 in experiment [1] was 4.79.

Consider `C[C@@H](NC(=O)c1cc(-c2ccccc2)nn1C)c1ccc(CO)cc1`, for which the pIC50 in experiment [1] is 5.22.

For `COc1cc(F)c(Cl)c2cc(C(=O)N[C@H](C)c3ccc(C(=O)O)cc3)n(C)c12`, the pIC50 was 6.91 in experiment [1] and 5.89 in experiment [2].

As to `C[C@@H](NC(=O)c1cc2cc(Cl)cc(OC(F)(F)F)c2n1C)c1ccc(C(=O)O)cc1`, the values for the pIC50 in experiment [1] and in experiment [2] were 6.08 and 5.17, respectively.

Regarding `C[C@@H](NC(=O)c1cc(-c2ccccc2)nn1C)c1ccc(N(C)C(=N)N)cc1`, the pIC50 in experiment [1] is less than 4.00.

For `Cc1cc2c(cc1Cl)cc(C(=O)N[C@H](C)c1ccc(C(=O)O)cc1)n2C`, the pIC50 is 7.29 in experiment [1] and 6.39 in experiment [2].

Turning to `C[C@@H](NC(=O)c1cc2ccccc2n1C)c1ccc(C(=O)O)cc1`, the pIC50 in experiment [1] was 5.71.

`COc1cc(Cl)cc2cc(C(=O)N[C@H](C)c3ccc(C(=O)O)cc3)n(C)c12`: the pIC50 was 7.14 in experiment [1] and 6.13 in experiment [2].

Consider `C[C@@H](NC(=O)c1cc(-c2ccccc2)nn1C)c1ccc(C(N)=O)cc1`, for which, in experiment [1], the pIC50 is 5.51.

As to `C[C@@H](NC(=O)c1cc(-c2ccccc2)nn1C)c1ccc(N2CCCC2=O)cc1`, the pIC50 in experiment [1] is 5.48.

For `Cc1cc2c(cc(C(=O)N[C@H](C)c3ccc(C(=O)O)cc3)n2C)c2ccccc12`, the pIC50 in experiment [1] is 7.55; in experiment [2] it was 6.60.

In experiment [3], `NC(=O)c1ccc(F)c(Cl)c1` gave a pKd of 2.82.

For the compound `Cc1ccc([C@@H](C)NC(=O)c2cc(-c3ccccc3)nn2C)cc1`, the pIC50 in experiment [1] was 4.63.

As for `C[C@@H](NC(=O)c1cc2cc(Cl)c(Br)cc2n1C)c1ccc(C(=O)O)cc1`, the pIC50 in experiment [1] is 7.21; in experiment [2] it was 6.47.

`Cc1cc2c(cc(C(=O)N[C@H](C)c3ccc(C(=O)O)cc3)n2C)c(Cl)c1Cl`: the values for the pIC50 in experiment [1] and in experiment [2] were 7.85 and 7.02, respectively.

As to `C[C@@H](NC(=O)c1cc(-c2ccccc2)nn1C)c1ccc(-c2cncnc2)cc1`, the pIC50 in experiment [1] is 4.67.

In the case of `CC(=O)NS(=O)(=O)c1ccc([C@@H](C)NC(=O)c2cc(-c3ccccc3)nn2C)cc1`, in experiment [1], the pIC50 is 7.00.

With `C[C@@H](NC(=O)c1cc(-c2ccccc2)nn1C)c1ccc(N(CC(=O)O)S(C)(=O)=O)cc1`, in experiment [1], the pIC50 was 5.85.

Turning to `Cc1cc(Cl)c2cc(C(=O)N[C@H](C)c3ccc(S(=O)(=O)CC(=O)O)cc3)n(C)c2c1`, the pIC50 in experiment [1] was 8.52.

With `C[C@@H](NC(=O)c1cc(-c2ccccc2)nn1C)c1ccc(N2CC[C@H](O)C2)cc1`, the pIC50 in experiment [1] is 4.91.

As for `C[C@@H](NC(=O)c1cc(-c2ccccc2)nn1C)c1ccc(N2CCCS2(=O)=O)cc1`, the pIC50 in experiment [1] was 5.60.

With `CC(NC(=O)c1cc(-c2ccccc2)nn1C)c1ccc(N(C)S(C)(=O)=O)cc1` (racemic), the pIC50 in experiment [1] is 5.17.

With `C[C@@H](NC(=O)c1cc(-c2ccccc2)nn1C)c1ccc(N)cc1`, the pIC50 in experiment [1] was 4.42.

On to `Cn1c(C(=O)NC(C(N)=O)c2ccccc2)cc2cc(Cl)ccc21` (racemic), for which the pIC50 in experiment [1] is less than 4.00.

In turn, `Cn1c(C(=O)Nc2cccc(C(=O)O)c2)cc2ccccc21` had a pKd in experiment [4] of 3.84.

As to `C[C@@H](NC(=O)c1cc(-c2ccccc2)nn1C)c1ccc(NS(C)(=O)=O)cc1`, in experiment [1], the pIC50 was 4.27.

As to `CCc1cc(Cl)c2cc(C(=O)N[C@H](C)c3ccc(C(=O)O)cc3)n(C)c2c1`, the pIC50 is 7.52 in experiment [1] and 6.52 in experiment [2].

For `Cn1nc(-c2ccccc2)cc1C(=O)NC(C)(C)c1ccc(C(=O)O)cc1`, in experiment [1], the pIC50 was 5.89.

As to `C[C@@H](NC(=O)c1cc2c3ccccc3ccc2n1C)c1ccc(C(=O)O)cc1`, the pIC50 in experiment [1] was 7.24; in experiment [2] it was 6.46.

On to `Cn1c(C(=O)N[C@@H](c2ccccc2)[C@H](O)C(F)(F)F)cc2cc(Cl)ccc21` (relative stereo), for which the pIC50 in experiment [1] was less than 4.00.

For the compound `C[C@@H](NC(=O)c1cc(-c2ccccc2)nn1C)c1ccc(C(=O)O)cc1`, in experiment [1], the pIC50 was 6.40.

As to `Cn1nc(-c2ccccc2)cc1C(=O)NC1CC1`, the pKd in experiment [4] is 3.98.

Regarding `C[C@@H](NC(=O)c1cc(-c2ccccc2)nn1C)c1ccccc1`, the pIC50 in experiment [1] was 4.66.

Turning to `Cn1c(C(=O)NC(CN)c2ccccc2)cc2cc(Cl)ccc21` (racemic), the pIC50 in experiment [1] is 4.40.

In the case of `CC(=O)NS(=O)(=O)N1CCC(NC(=O)c2cc3c(Cl)c(Cl)ccc3n2C)C(CC(=O)O)C1` (configuration not stated), the pIC50 in experiment [5] is 5.82 to 8.00.

Regarding `C[C@@H](NC(=O)c1cc(-c2ccccc2)nn1C)c1ccc([N+](=O)[O-])cc1`, in experiment [1], the pIC50 was 4.26.

For `Cn1nc(-c2ccccc2)cc1C(=O)NCc1ccccc1`, the pIC50 in experiment [1] was less than 4.00.

In the case of `Cn1c(C(=O)NC(CCO)c2ccccc2)cc2cc(Cl)ccc21` (racemic), in experiment [1], the pIC50 is 4.00.

For the compound `COCC(NC(=O)c1cc2cc(Cl)ccc2n1C)c1ccccc1` (racemic), in experiment [1], the pIC50 was less than 4.00.

Turning to `CC(NC(=O)c1cc(-c2ccccc2)nn1C)c1ccc(C(=O)O)cc1` (racemic), the pIC50 in experiment [1] was 6.05.

As for `Cc1cc(Cl)c2cc(C(=O)N[C@H](C)c3ccc(C(=O)O)cc3)n(C)c2c1`, the pIC50 in experiment [1] was 7.55; in experiment [2] it was 6.61.

Turning to `C[C@@H](NC(=O)c1cc(-c2ccccc2)nn1C)c1ccc(N2CCCC2)cc1`, the pIC50 in experiment [1] was 4.38.

As to `C[C@@H](O)[C@@H](NC(=O)c1cc2cc(Cl)ccc2n1C)c1ccccc1`, the pIC50 in experiment [1] was 4.92.

Consider `C[C@@H](NC(=O)c1cc(-c2ccccc2)nn1C)c1ccc(S(=O)(=O)CC(=O)O)cc1`, for which the pIC50 in experiment [1] is 7.60.

Turning to `Cn1c(C(=O)N[C@@H](c2ccccc2)[C@@H](O)C(F)(F)F)cc2cc(Cl)ccc21` (relative stereo), in experiment [1], the pIC50 is less than 4.00.
